# According to patent US20260115202A1, “TOPICAL COMPOSITIONS COMPRISING AN ESTETROL COMPONENT AND USE OF SAID COMPOSITIONS FOR WOUND HEALING” (NEURALIS SA, priority 2022, published 2026):
# Tests used:
# [1] = system: LPS-induced delayed wound healing mice model; experiment: In vivo LPS-induced delayed wound healing model: wound histology and immunohistochemistry; settings: versus LPS/PBO
# Description: (§1) The in vivo LPS-induced delayed wound healing model was reproduced as previously described (Crompton R, Williams H, Ansell D, Campbell L, Holden K, Cruickshank S, Hardman M J. Oestrogen promotes healing in a bacterial LPS model of delayed cutaneous wound repair. Lab Invest. 2016 April, 96 (4): 439-49).
# (§2) Female wild-type (C57BL/6J) 8 weeks old mice were split into six groups (6 animals per experimental group): • Double placebo control (no LPS, placebo treatment), • LPS control (LPS, placebo treatment), • LPS with topical EstroGel (estradiol gel, contains 0.06% 17β-estradiol as hemihydrate in a hydro-alcoholic gel), • LPS with topical AG24 (E4 at 0.5%), • LPS with topical AG25 (E4 at 0.22%), • LPS with topical AG26 (E4 at 0.06%).
# The day prior to wounding (day −1), all the animals were weighed and anaesthetised using oxygen and isoflurane (flow rate 1.25-2 L with 2-2.5% isoflurane depending on clinical signs). Animals were shaved and dorsal areas prepped. Wound positions (2 wounds) were marked on the dorsum of each animal. Animals received a first subcutaneous injection of 2 μg K. pneumoniae-derived LPS diluted in DPBS (1 μg per wound: Sigma Aldrich, UK: L4268) at the wound site, except the double placebo group that received DPBS only. A thin layer of EstroGel, AG24, AG25, AG26 or placebo were then applied to the dorsum of each animal, measured as 60 μl total (30 μl/wound). Animals recovered in a warming cabinet and were then single housed in fresh cages containing alpha pad, RO water, food, mash and a house. On day 0 (24 hours after first anaesthesia), mice were re-anaesthetised and dorsal skin cleaned with chlorhexidine wipes. Two 6 mm dorsal excisions were created. 2 μg LPS (1 μg per wound) was subcutaneously injected at the wound site as above, except for the double placebo mice that were injected with DPBS. […]
# These are expressed in the increase in uterus weight. Next, we evaluated wound closure from histological samples. […] The degree of re-epithelialisation was determined as the length of neo-epidermis divided by the distance between the wound margins, multiplied by 100.
# [2] = system: wound expression of M1 (TNF-α and IL1-β) and M2 (Fizz1 and Ym1) markers; experiment: In vivo LPS model: qPCR of M1 and M2 markers in wound tissue RNA; parameters: species or system mice; settings: versus LPS/PBO control
# Description: Female wild-type (C57BL/6J) 8 weeks old mice were split into six groups (6 animals per experimental group): • Double placebo control (no LPS, placebo treatment), • LPS control (LPS, placebo treatment), • LPS with topical EstroGel (estradiol gel, contains 0.06% 17β-estradiol as hemihydrate in a hydro-alcoholic gel), • LPS with topical AG24 (E4 at 0.5%), • LPS with topical AG25 (E4 at 0.22%), • LPS with topical AG26 (E4 at 0.06%). The day prior to wounding (day -1), all the animals were weighed and anaesthetised using oxygen and isoflurane (flow rate 1.25-2 L with 2-2.5% isoflurane depending on clinical signs). Animals were shaved and dorsal areas prepped. Wound positions (2 wounds) were marked on the dorsum of each animal. […] A thin layer of EstroGel, AG24, AG25, AG26 or placebo were then applied to the dorsum of each animal, measured as 60 μl total (30 μl/wound). […] For isolation of RNA and quantitative real time PCR murine macrophages were collected in Trizol and RNA was isolated using a Trizol plus RNA isolation kit (Invitrogen. Thermo Fisher) according to the manufacturer's instructions. […] Quantitative real-time PCR was carried out using 2×Takyon SYBR Green mastermix and a CFX Connect thermocycler. […]
# [3] = system: Female wild-type (C57BL/6J) 8 weeks old mice; experiment: In vivo LPS-induced delayed wound healing model: uterine weight and morphology; settings: topical, 60 μl on days -1 to 4, LPS mice, assessed at day 5
# Description: as §1, §2
# The day prior to wounding (day −1), all the animals were weighed and anaesthetised using oxygen and isoflurane (flow rate 1.25-2 L with 2-2.5% isoflurane depending on clinical signs). Animals were shaved and dorsal areas prepped. Wound positions (2 wounds) were marked on the dorsum of each animal. Animals received a first subcutaneous injection of 2 μg K. pneumoniae-derived LPS diluted in DPBS (1 μg per wound: Sigma Aldrich, UK: L4268) at the wound site, except the double placebo group that received DPBS only. A thin layer of EstroGel, AG24, AG25, AG26 or placebo were then applied to the dorsum of each animal, measured as 60 μl total (30 μl/wound). […]
# [4] = system: LPS-induced delayed wound healing mice model; experiment: In vivo LPS model, single or repeated administration: wound histology at day 3; settings: single administration
# Description: The in vivo LPS treatment protocol (delayed wound healing model) as presented in example 4 has been repeated with the following groups of animals: • Double placebo group (untreated control). • LPS control (LPS, placebo treatment). • LPS with topical EstroGel (estradiol gel, contains 0.06% 17β-estradiol as hemihydrate in a hydro-alcoholic gel), repeated administration for 4 days. • LPS with topical AG26 (E4 at 0.06%), single administration. • LPS with topical AG26 (E4 at 0.06%), repeated administration for 4 days. • LPS with topical AG28 (E4 at 0.06%), single administration. • LPS with topical AG28 (E4 at 0.06%), repeated administration for 4 days. On day 0 only (single administration), or on days −1, 0, 1 and 2 (repeated administration), topical EstroGel. AG26. AG28 or corresponding placebo was applied in a thin layer over the top of the wounds (60 μl total: 30 μl/wound) during observations. On day 3, mice were humanely culled via rising concentration of CO2 and cervical dislocation. Uteri as well as non-wounded and wound tissue samples were processed as described under example 4. […] Next, we evaluated wound closure from histological samples (FIG. 13). Histological sections were subjected to K14 immunohistochemistry to visualise the newly forming epidermis.
smiles,measurement,setting,value
"C[C@]12CC[C@@H]3c4ccc(O)cc4CC[C@H]3[C@@H]1[C@@H](O)[C@@H](O)[C@@H]2O [Formulation E4, 1,3,5 (10)-estratrien-3,15alpha, 16alpha, 17beta-tetrol]",wound re-epithelialisation,"[1]; day 5, K14 immunohistochemistry",promotes re-epithelialization
same,wound macrophage numbers,"[1]; day 5, immunohistochemistry",reduced numbers of wound macrophages
same,wound neutrophil numbers,"[1]; day 5, immunohistochemistry",reduced numbers of wound neutrophils
same,"wound M1 marker expression (TNF-α, IL1-β)",[2],reduced M1 marker expression
same,"wound M2 marker expression (Fizz1, Ym1)",[2],increased M2 marker expression
same,uterine weight and morphology,[3],affects uterine weight in a dose-dependent manner
same,numbers of wound neutrophils,[4],reduced numbers of wound neutrophils
